Our source for the MIC, IC50 and Activity values is ChEMBL document CHEMBL5143519, “Exploring disordered loops in DprE1 provides a functional site to combat drug-resistance in Mycobacterium strains” (Eur J Med Chem, 2022).

Test [1] has as its system Mycolicibacterium smegmatis. Description: Antimycobacterial activity against Mycobacterium smegmatis wild type DprE1 assessed as inhibition of bacterial growth incubated for 7 days by microplate alamar blue assay. It counts as functional. The settings on record: 168 h, time 7 day.
For test [2], the target named is T1, Decaprenylphosphoryl-beta-D-ribose oxidase (Mycobacterium tuberculosis (strain ATCC 25618 / H37Rv), UniProt P9WJF1).
T1 sequence (P9WJF1 whole entry): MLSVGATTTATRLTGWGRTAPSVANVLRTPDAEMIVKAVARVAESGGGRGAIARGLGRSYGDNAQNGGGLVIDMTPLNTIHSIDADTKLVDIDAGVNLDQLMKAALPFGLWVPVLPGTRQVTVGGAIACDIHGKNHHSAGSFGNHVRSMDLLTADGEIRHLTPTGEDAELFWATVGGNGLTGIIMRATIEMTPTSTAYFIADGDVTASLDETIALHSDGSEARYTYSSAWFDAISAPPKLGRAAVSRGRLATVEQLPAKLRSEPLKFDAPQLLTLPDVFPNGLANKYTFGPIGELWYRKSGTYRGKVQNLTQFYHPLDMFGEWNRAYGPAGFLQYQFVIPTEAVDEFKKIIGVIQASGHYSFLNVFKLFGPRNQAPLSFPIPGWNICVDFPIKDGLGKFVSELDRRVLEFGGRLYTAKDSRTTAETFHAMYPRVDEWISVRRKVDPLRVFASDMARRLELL
In words: Inhibition of Mycobacterium tuberculosis wild type DprE1 expressed in Escherichia coli BL21 DE3 assessed as formation of resorufin using FPR as substrate incubated for 10 mins by Amplex Red dye microplate assay.

For test [3], the system named is Mycobacterium tuberculosis. Description: Antimycobacterial activity against Mycobacterium tuberculosis H37Rv assessed as inhibition of bacterial growth incubated for 7 days by microplate alamar blue assay. Format: functional. The settings on record: 168 h, time 7 day.
The test system of test [4] is Mycobacterium tuberculosis. In words: Antimycobacterial activity against Mycobacterium tuberculosis H37Rv assessed as reduction in bacterial colony forming units at 20 times MIC concentration measured after 21 days by time kill assay. Format: functional. The note with it: time 21 day.
Test [5] concerns Mycobacterium tuberculosis. Description: Antimycobacterial activity against Mycobacterium tuberculosis H37Rv infected in mouse macrophage J774A.1 cell assessed as reduction in bacterial colony forming units incubated for 21 days. Format: functional. The note with it: time 21 day.
For test [6], the system named is Mycolicibacterium smegmatis. Description: Antimycobacterial activity against Mycobacterium smegmatis mc2155 assessed as inhibition of bacterial growth incubated for 7 days by microplate alamar blue assay. Format: functional. The settings on record: mc2155, 168 h, time 7 day. (Resazurin is reduced to fluorescent resorufin, in cell work by metabolically active cells.)

Test [7] relates to Mycobacterium tuberculosis. Description: Antimycobacterial activity against Mycobacterium tuberculosis H37Rv assessed as reduction in bacterial colony forming units at 20 times MIC concentration measured after 7 days by time kill assay. Format: functional, organism-based. The settings on record: time 7.0 day.

Converted amounts (≈) assume the structure as drawn. The source made the active and inactive calls. Bounds are passed on as bounds.

`CCOC(=O)NC(=O)c1ccsc1NC(=O)c1nc2ccccc2s1`: the minimal inhibitory concentration (MIC) in test [1] amounted to 0.23 µM (≈ 0.0863 µg/mL); in test [3] it was 1.68 µM (≈ 0.631 µg/mL); in test [6], 33.2 µM (≈ 12.5 µg/mL). In addition, the IC50 in test [2] was found to be 0.053 µM. In addition, the Activity came to 3 log10CFU/ml in test [4] and 0.6 log10CFU in test [5].
As for `CC(=O)c1ccc(C(=O)Nc2sccc2C(=O)NC(=O)OCC2CC2)cc1`, the IC50 in test [2] worked out at 1.21 µM. Moreover, the minimal inhibitory concentration (MIC) in test [3] stood at 51.8 µM (≈ 20 µg/mL).
On to `O=C(NC(=O)c1ccsc1NC(=O)c1nc2ccccc2s1)OC1CCC1`, for which the half-maximal inhibitory concentration (IC50) in test [2] was determined as 18.6 µM. Besides, in test [3], the MIC was over 250 µM.
Turning to `CCOC(=O)NC(=O)c1ccsc1NC(=O)c1ccc(C#N)cc1`, the IC50 in test [2] was over 64 µM. Also, in test [3], the minimum inhibitory concentration (MIC) was over 300 µM.
Turning to `CCOC(=O)NC(=O)c1ccsc1NC(=O)c1ccc(C(C)=O)cc1`, the IC50 in test [2] came out at 36.4 µM. The MIC in test [3] is over 300 µM.
With `CO[C@H]1/C=C/O[C@@]2(C)Oc3c(C)c(O)c4c(O)c(c(/C=N/N5CCN(C)CC5)c(O)c4c3C2=O)NC(=O)/C(C)=C\C=C\[C@H](C)[C@H](O)[C@@H](C)[C@@H](O)[C@@H](C)[C@H](OC(C)=O)[C@@H]1C` [RIFAMPIN], the MIC in test [3] was 0.11 µM (≈ 0.0905 µg/mL); in test [6], 0.35 µM (≈ 0.288 µg/mL). The Activity in test [4] worked out at 3 log10CFU/ml; in test [5], 1.1 log10CFU.
Consider `CCOC(=O)NC(=O)c1cc(F)sc1NC(=O)c1nc2ccccc2s1`, for which the minimal inhibitory concentration (MIC) in test [1] amounted to 0.046 µM (≈ 0.0181 µg/mL).
Consider `CCOC(=O)NC(=O)c1ccsc1NC(=O)c1ccc(C#N)cn1`, for which the concentration for half-maximal inhibition (IC50) in test [2] is 41.2 µM. Further, the minimal inhibitory concentration (MIC) in test [3] is over 300 µM.
As for `O=C(NC(=O)c1ccsc1NC(=O)c1nc2ccccc2s1)OCC1CCCC1`, the concentration for half-maximal inhibition (IC50) in test [2] is 22.4 µM. For the same compound, the MIC in test [3] is over 250 µM.
Turning to `N#Cc1ccc(C(=O)Nc2sccc2C(=O)NC(=O)OCC2CC2)nc1`, in test [2], the concentration for half-maximal inhibition (IC50) was 11.5 µM. Also, in test [3], the minimum inhibitory concentration (MIC) was found to be 216 µM (≈ 79.8 µg/mL).
As to `N#Cc1ccc(C(=O)Nc2sccc2C(=O)NC(=O)OCC2CC2)cc1`, the half-maximal inhibitory concentration (IC50) in test [2] worked out at 18.9 µM. For the same compound, the minimum inhibitory concentration (MIC) in test [3] is over 250 µM.
With `O=C(NC(=O)c1ccsc1NC(=O)c1nc2ccccc2s1)OCC1CCC1`, in test [2], the IC50 came to 0.098 µM. Also, the minimum inhibitory concentration (MIC) in test [3] came to 3.01 µM (≈ 1.25 µg/mL); in test [6] it was 24.1 µM (≈ 9.99 µg/mL). Also, in test [5], the Activity was determined as 0.9 log10CFU.
Consider `CCOC(=O)NC(=O)c1ccsc1NC(=O)c1nc2cnccc2s1`, for which, in test [1], the minimal inhibitory concentration (MIC) is 0.089 µM (≈ 0.0335 µg/mL).
`O=C(NC(=O)c1ccsc1NC(=O)c1nc2ccccc2s1)OCC1CCCCC1`: in test [2], the IC50 is over 64 µM. For the same compound, the MIC in test [3] was over 250 µM.
For `O=C(NC(=O)c1ccsc1NC(=O)c1nc2ccccc2s1)OCC1CC1`, in test [2], the IC50 was 0.01 µM. For the same compound, in test [7], the outcome was Active. The MIC in test [3] was 0.77 µM (≈ 0.309 µg/mL); in test [6] it was 12.4 µM (≈ 4.99 µg/mL). Further, the Activity in test [4] was 3 log10CFU/ml; in test [5] it was 1.1 log10CFU.

The term MIC denotes the smallest concentration in the dilution series that meets the test's criterion for growth inhibition. Broadly, the IC50 is the point on the concentration scale where inhibition reaches its midpoint.
